Legend:
[1] = system: JAK1/TYK2 pSTAT5 (Tyr694/699) in THP-1 cell line; experiment: IFNa-stimulated JAK1/TYK2 pSTAT5 (Tyr694/699) inhibition cellular assay, AlphaLISA; type: cell-based; conditions: Homo sapiens; THP-1 cells, IFNa-stimulated, AlphaLISA (Assay B); read-out: Cellular_THP1_IFNa-pSTATS_TYK2
Outline: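 The readout is AlphaLISA signal at 615 nm for phospho-STAT5 in THP-1 lysates after IFNa stimulation (added at 100 ng/mL, 30 min, 37 °C). Cells had compound for 1 h beforehand across eight 6-fold concentrations up to 10000 nM final. IC50s are 4PL fits with bottom and Hill slope constrained.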

[2] = target: T1, TYK2 JH2 (Homo sapiens, UniProt P29597); experiment: TYK2 JH2 binding assay (KINOMEscan KdELECT competitive binding); conditions: TYK2 JH2 domain, KINOMEscan KdELECT (Assay A); read-out: Biochemical TYK2_DiscoverX_JH2_BND_Kd
T1 construct: purchased DiscoverX (KINOMEscan KdELECT service); host or cells: E. coli BL21-derived (T7 phage display) or HEK-293
Outline: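 Test compounds were titrated in 11 three-fold steps against JH2 fragment captured on ligand-loaded magnetic beads, with 1 h incubation at room temperature and DMSO at 0.9%. Eluted kinase was quantified by qPCR, and Kd was fitted from the dose series.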

T1 sequence (P29597 589-875 limits assumed): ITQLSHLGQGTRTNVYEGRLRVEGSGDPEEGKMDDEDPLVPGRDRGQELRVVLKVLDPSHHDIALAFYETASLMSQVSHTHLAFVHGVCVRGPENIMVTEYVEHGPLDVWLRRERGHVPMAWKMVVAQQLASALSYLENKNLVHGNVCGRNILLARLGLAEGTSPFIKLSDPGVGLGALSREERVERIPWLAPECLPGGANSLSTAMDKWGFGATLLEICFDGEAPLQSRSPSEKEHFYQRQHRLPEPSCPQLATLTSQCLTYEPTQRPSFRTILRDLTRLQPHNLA

Structure (SMILES) | IC50 [1] | Kd [2]
CNc1ncc(C#Cc2nc3ccccn3n2)c2cc(NC(=O)C3CC3)ncc12 [Example 598, N-(5-([1,2,4]triazolo[1,5-a]pyridin-2-ylethynyl)-8-(methylamino)-2,7-naphthyridin-3-yl)cyclopropanecarboxamide] | ≤ 500 nM | ≤ 100 nM
CNc1ncc(C#Cc2ccncn2)c2cc(NC(=O)C3CC3)ncc12 [Example 599, N-(8-(methylamino)-5-(pyrimidin-4-ylethynyl)-2,7-naphthyridin-3-yl)cyclopropanecarboxamide] | ≤ 500 nM | ≤ 100 nM
CNc1ncc(C#Cc2cnco2)c2cc(NC(=O)C3CC3)ncc12 [Example 600, N-(8-(methylamino)-5-(oxazol-5-ylethynyl)-2,7-naphthyridin-3-yl)cyclopropanecarboxamide] | ≤ 500 nM | ≤ 100 nM
CNc1ncc(C#Cc2ccnc(C)c2)c2cc(NC(=O)C3CC3)ncc12 [Example 601, N-(8-(methylamino)-5-((2-methylpyridin-4-yl)ethynyl)-2,7-naphthyridin-3-yl)cyclopropanecarboxamide] | ≤ 500 nM | ≤ 100 nM
CNc1ncc(C#Cc2ccn3cnnc3c2)c2cc(NC(=O)C3CC3)ncc12 [Example 607, N-(5-([1,2,4]triazolo[4,3-a]pyridin-7-ylethynyl)-8-(methylamino)-2,7-naphthyridin-3-yl)cyclopropanecarboxamide] | ≤ 500 nM | ≤ 100 nM
CNc1ncc(C#Cc2ccc(O)c(C#N)c2)c2cc(NC(=O)C3CC3)ncc12 [Example 608, N-(5-((3-cyano-4-hydroxyphenyl)ethynyl)-8-(methylamino)-2,7-naphthyridin-3-yl)cyclopropanecarboxamide] | ≤ 500 nM | ≤ 100 nM
CNc1ncc(C#Cc2ccn3ncnc3c2)c2cc(NC(=O)C3CC3)ncc12 [Example 609, N-(5-([1,2,4]triazolo[1,5-a]pyridin-7-ylethynyl)-8-(methylamino)-2,7-naphthyridin-3-yl)cyclopropanecarboxamide] | ≤ 500 nM | ≤ 100 nM
CNc1ncc(C#Cc2ccc(S(C)(=O)=O)cc2)c2cc(NC(=O)C3CC3)ncc12 [Example 610, N-(8-(methylamino)-5-((4-(methylsulfonyl)phenyl)ethynyl)-2,7-naphthyridin-3-yl)cyclopropanecarboxamide] | ≤ 500 nM | ≤ 100 nM
CNc1ncc(C#Cc2cnc3cccnn23)c2cc(NC(=O)C3CC3)ncc12 [Example 611, N-(5-(imidazo[1,2-b]pyridazin-3-ylethynyl)-8-(methylamino)-2,7-naphthyridin-3-yl)cyclopropanecarboxamide] | ≤ 500 nM | ≤ 100 nM
CNc1ncc(C#Cc2ccncc2OC)c2cc(NC(=O)C3CC3)ncc12 [Example 612, N-(5-((3-methoxypyridin-4-yl)ethynyl)-8-(methylamino)-2,7-naphthyridin-3-yl)cyclopropanecarboxamide] | ≤ 500 nM | ≤ 100 nM
CNc1ncc(C#Cc2ccc(OC)cn2)c2cc(NC(=O)C3CC3)ncc12 [Example 613] | ≤ 500 nM | ≤ 100 nM
CNc1ncc(C#Cc2ccc3c(c2)n(C)c(=O)n3C)c2cc(NC(=O)C3CC3)ncc12 [Example 614, N-(5-((1,3-dimethyl-2-oxo-2,3-dihydro-1H-benzo[d]imidazol-5-yl)ethynyl)-8-(methylamino)-2,7-naphthyridin-3-yl)cyclopropanecarboxamide] | ≤ 500 nM | ≤ 100 nM
CNc1ncc(C#Cc2ccn3c(C)nnc3c2)c2cc(NC(=O)C3CC3)ncc12 [Example 615, N-(5-((3-methyl-[1,2,4]triazolo[4,3-a]pyridin-7-yl)ethynyl)-8-(methylamino)-2,7-naphthyridin-3-yl)cyclopropanecarboxamide] | ≤ 500 nM | ≤ 100 nM
CNc1ncc(C#Cc2ccc3ncn(C)c3c2)c2cc(NC(=O)C3CC3)ncc12 [Example 616, N-(5-((1-methyl-1H-benzo[d]imidazol-6-yl)ethynyl)-8-(methylamino)-2,7-naphthyridin-3-yl)cyclopropanecarboxamide] | ≤ 500 nM | ≤ 100 nM
CNc1ncc(C#Cc2ccc3cnn(C)c3c2)c2cc(NC(=O)C3CC3)ncc12 [Example 617] | ≤ 500 nM | ≤ 100 nM
CNc1ncc(C#Cc2ccc3c(c2)nnn3C)c2cc(NC(=O)C3CC3)ncc12 [Example 618, N-(5-((1-methyl-1H-benzo[d][1,2,3]triazol-5-yl)ethynyl)-8-(methylamino)-2,7-naphthyridin-3-yl)cyclopropanecarboxamide] | ≤ 500 nM | ≤ 100 nM

Structure (SMILES) | IC50 [1] | Kd [2]
CNc1ncc(C#Cc2cn3ccccc3n2)c2cc(NC(=O)C3CC3)ncc12 [Example 619, N-(5-(imidazo[1,2-a]pyridin-2-ylethynyl)-8-(methylamino)-2,7-naphthyridin-3-yl)cyclopropanecarboxamide] | ≤ 500 nM | ≤ 100 nM
CNc1ncc(C#Cc2ccc3ncccc3c2)c2cc(NC(=O)C3CC3)ncc12 [Example 620, N-(8-(methylamino)-5-(quinolin-6-ylethynyl)-2,7-naphthyridin-3-yl)cyclopropanecarboxamide] | ≤ 500 nM | ≤ 100 nM
CNc1ncc(C#Cc2ccnc(C(F)F)c2)c2cc(NC(=O)C3CC3)ncc12 [Example 621, N-(5-((2-(difluoromethyl)pyridin-4-yl)ethynyl)-8-(methylamino)-2,7-naphthyridin-3-yl)cyclopropanecarboxamide] | ≤ 500 nM | ≤ 100 nM
CNc1ncc(C#Cc2ccc3ocnc3c2)c2cc(NC(=O)C3CC3)ncc12 [Example 622, N-(5-(benzo[d]oxazol-5-ylethynyl)-8-(methylamino)-2,7-naphthyridin-3-yl)cyclopropanecarboxamide] | ≤ 500 nM | ≤ 100 nM
CNc1ncc(C#Cc2ccnc(C(F)(F)F)c2)c2cc(NC(=O)C3CC3)ncc12 [Example 623, N-(8-(methylamino)-5-((2-(trifluoromethyl)pyridin-4-yl)ethynyl)-2,7-naphthyridin-3-yl)cyclopropanecarboxamide] | ≤ 500 nM | ≤ 100 nM
CNc1ncc(C#Cc2ccc(N3CCOCC3)cc2)c2cc(NC(=O)C3CC3)ncc12 [Example 624, N-(8-(methylamino)-5-((4-morpholinophenyl)ethynyl)-2,7-naphthyridin-3-yl)cyclopropanecarboxamide] | ≤ 500 nM | ≤ 100 nM
CNc1ncc(C#Cc2ccc3ncn(C4CC4)c3c2)c2cc(NC(=O)C3CC3)ncc12 [Example 625, N-(5-((1-cyclopropyl-1H-benzo[d]imidazol-6-yl)ethynyl)-8-(methylamino)-2,7-naphthyridin-3-yl)cyclopropanecarboxamide] | ≤ 500 nM | ≤ 100 nM
CNc1ncc(C#Cc2ccn3ccnc3c2)c2cc(NC(=O)C3CC3)ncc12 [Example 626, N-(5-(imidazo[1,2-a]pyridin-7-ylethynyl)-8-(methylamino)-2,7-naphthyridin-3-yl)cyclopropanecarboxamide] | ≤ 500 nM | ≤ 100 nM
CNc1ncc(C#Cc2ccc3nccnc3c2)c2cc(NC(=O)C3CC3)ncc12 [Example 627, N-(8-(methylamino)-5-(quinoxalin-6-ylethynyl)-2,7-naphthyridin-3-yl)cyclopropanecarboxamide] | ≤ 500 nM | ≤ 100 nM
CNc1ncc(C#Cc2ccc3nc(C)sc3c2)c2cc(NC(=O)C3CC3)ncc12 [Example 628, N-(8-(methylamino)-5-((2-methylbenzo[d]thiazol-6-yl)ethynyl)-2,7-naphthyridin-3-yl)cyclopropanecarboxamide] | ≤ 500 nM | ≤ 100 nM
CNc1ncc(C#Cc2cccc(OC)c2)c2cc(NC(=O)C3CC3)ncc12 [Example 629, N-(5-((3-methoxyphenyl)ethynyl)-8-(methylamino)-2,7-naphthyridin-3-yl)cyclopropanecarboxamide] | ≤ 500 nM | ≤ 100 nM
CNc1ncc(C#Cc2ccccc2OC)c2cc(NC(=O)C3CC3)ncc12 [Example 630, N-(5-((2-methoxyphenyl)ethynyl)-8-(methylamino)-2,7-naphthyridin-3-yl)cyclopropanecarboxamide] | ≤ 500 nM | ≤ 100 nM
CNc1ncc(C#Cc2ccc(OC)nc2)c2cc(NC(=O)C3CC3)ncc12 [Example 631, N-(5-((6-methoxypyridin-3-yl)ethynyl)-8-(methylamino)-2,7-naphthyridin-3-yl)cyclopropanecarboxamide] | ≤ 500 nM | ≤ 100 nM
CNc1ncc(C#Cc2cnccn2)c2cc(NC(=O)C3CC3)ncc12 [Example 632, N-(8-(methylamino)-5-(pyrazin-2-ylethynyl)-2,7-naphthyridin-3-yl)cyclopropanecarboxamide] | ≤ 500 nM | ≤ 100 nM
CNc1ncc(C#Cc2cnc3ccccn23)c2cc(NC(=O)C3CC3)ncc12 [Example 633, N-(5-(imidazo[1,2-a]pyridin-3-ylethynyl)-8-(methylamino)-2,7-naphthyridin-3-yl)cyclopropanecarboxamide] | ≤ 500 nM | ≤ 100 nM
CNc1ncc(C#Cc2ccc(OC(C)C)cc2)c2cc(NC(=O)C3CC3)ncc12 [Example 634, N-(5-((4-isopropoxyphenyl)ethynyl)-8-(methylamino)-2,7-naphthyridin-3-yl)cyclopropanecarboxamide] | ≤ 500 nM | ≤ 100 nM

Source: patent US20240025906A1 (NEURON23, INC., priority 2022, published 2024)
